Legend:
[1] = target: T1, PrsA (Haemophilus influenzae, UniProt P44328); experiment: HPLC-AEC; format: biochemical; details: Mg2+, pH 8.0, 37 °C
T1 construct: gene prs; recombinant, E. coli M15; cloned in MBP-S3N10-...-His6 vector

[2] = target: T2, Bcs3 (Haemophilus influenzae, UniProt Q2ERG0); experiment: HPLC-AEC and Alcian blue PAGE of polymer formation; format: biochemical; details: Mg2+, pH 8.0, 37 °C
T2 construct: full length, 1,215 residues; N-terminal MBP-S3N10 and C-terminal His6 fusion; E. coli M15

[3] = target: T3, Bcs1 (Haemophilus influenzae, UniProt Q48230); experiment: HPLC-AEC; format: biochemical; details: 5 mM, CTP, Mg2+, pH 8.0, 37 °C
T3 construct: recombinant, E. coli M15; cloned in MBP-S3N10-...-His6 vector

[4] = target: Bcs3 crystallization construct MBP-Bcs3_(2–1162)-His6 after PreScission digest (Bcs3-His6) (Haemophilus influenzae serotype b (strain ATCC 10211)) (UniProt Q2ERG0); experiment: crystal structure

With `O=P(O)(O)OC[C@H]1OC(O)[C@H](O)[C@@H]1O` (stereo partly drawn) [D-ribose-5-phosphate] the HPLC-AEC ([1]; ATP) was “The reaction cascade (e, f) was started with (e) Rib or (f) Rib-5P”.

`O=P(O)(O)OC[C@H]1O[C@H](OP(=O)(O)OP(=O)(O)O)[C@H](O)[C@@H]1O` [PRPP, 5-phospho-α-D-ribose-1-diphosphate] was tested, and the “HPLC-AEC and Alcian blue PAGE of polymer formation” value ([2]; 5 mM, CDP-ribitol generated in situ by RpiA and Bcs1, CriT donor) was “Thus, we concluded that PRPP is the donor substrate for Bcs3”.

For `Nc1ccn([C@@H]2O[C@H](COP(=O)(O)OP(=O)(O)OC[C@@H](O)[C@@H](O)[C@@H](O)CO)[C@@H](O)[C@H]2O)c(=O)n1` [CDP-ribitol], the “HPLC-AEC and Alcian blue PAGE of polymer formation” value ([2]; generated in situ by RpiA and Bcs1, with PRPP, CroT donor) was “CDP-ribitol was only used up in the presence of PRPP, with concomitant production of CMP”.

With `Nc1ncnc2c1ncn2[C@@H]1O[C@H](COP(=O)(O)OP(=O)(O)OP(=O)(O)O)[C@@H](O)[C@H]1O` [ATP] the HPLC-AEC ([1]; ribose-5-phosphate) was “(c) PrsA using ATP, CTP or UTP as donor substrate”.

With `O=C(CO)[C@H](O)[C@H](O)COP(=O)(O)O` [ribulose-5-phosphate] the HPLC-AEC ([3]; NADPH) was “presence of Bcs1 in a reaction containing ribulose-5-phosphate led to the consumption of NADPH”.

For `NC(=O)C1=CN([C@@H]2O[C@H](COP(=O)(O)OP(=O)(O)OC[C@H]3O[C@@H](n4cnc5c(N)ncnc54)[C@H](OP(=O)(O)O)[C@@H]3O)[C@@H](O)[C@H]2O)C=CC1` [NADPH], the HPLC-AEC ([3]; ribulose-5-phosphate) was “presence of Bcs1 in a reaction containing ribulose-5-phosphate led to the consumption of NADPH”.

For “Bcs3 crystallization construct MBP-Bcs3_(2–1162)-His6 after PreScission digest (Bcs3-His6) (from UniProt Q2ERG0 2-1162) (enzyme)”, the stoichiometry N [4] was 2.

From PMC10299916, “A multi-enzyme machine polymerizes the Haemophilus influenzae type b capsule” (Nature Chemical Biology, 2023)
